Reference: ChEMBL document CHEMBL1127311, “Derivatives of 4-(2'-methoxyphenyl)-1-[2'-(N-2"-pyridinyl-p-iodobenzamido)ethyl]pipera zine (p-MPPI) as 5-HT1A ligands” (J Med Chem, 1994)

Species on record: Rattus norvegicus
Assay: not given

| Kd | Compound |
| --- | --- |
| 0.3 nM | COc1ccccc1N1CCN(CCN(C(=O)c2ccc(I)cc2)c2ccccn2)CC1 |
| 0.3 nM | COc1ccccc1N1CCN(CCN(C(=O)c2ccc(F)cc2)c2ccccn2)CC1 |

These compounds were tested against T1, 5-hydroxytryptamine receptor 1A (Rattus norvegicus, UniProt P19327) (assay: biochemical).
T1 sequence (P19327 whole entry): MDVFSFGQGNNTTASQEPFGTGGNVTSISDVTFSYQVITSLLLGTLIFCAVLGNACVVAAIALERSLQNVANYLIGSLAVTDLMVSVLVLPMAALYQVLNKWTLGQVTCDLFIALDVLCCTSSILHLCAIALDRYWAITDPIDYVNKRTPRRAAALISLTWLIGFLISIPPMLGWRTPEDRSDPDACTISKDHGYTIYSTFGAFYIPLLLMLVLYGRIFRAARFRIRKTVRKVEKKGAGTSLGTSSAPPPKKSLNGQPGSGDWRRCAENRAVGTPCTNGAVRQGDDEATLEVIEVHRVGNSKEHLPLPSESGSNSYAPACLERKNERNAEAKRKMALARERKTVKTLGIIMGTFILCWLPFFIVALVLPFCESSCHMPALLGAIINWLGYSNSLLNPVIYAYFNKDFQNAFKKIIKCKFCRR
Description: In vitro binding affinity to 5-hydroxytryptamine 1A receptor using [125I](R)-(+)-trans-8-OH-PIPAT as radioligand in rat hippocampal homogenate

| IC50 | Compound |
| --- | --- |
| 15 nM | COc1ccccc1N1CCN(C[C@@H](C(=O)NC(C)(C)C)c2ccccc2)CC1 |

Target: T1, 5-hydroxytryptamine receptor 1A
Assay: biochemical
Remark: another data set of the same source
Description: In vitro binding affinity to 5-hydroxytryptamine 1A receptor in rat hippocampal homogenate by [125I](R)-(+)-trans-8-OH-PIPAT displacement.

| Ki | Compound |
| --- | --- |
| 2.5 nM | COc1ccccc1N1CCN(CCN(C(=O)c2ccccc2)c2ccccn2)CC1 |
| 3.5 nM | COc1ccccc1N1CCN(CCN(C(=O)c2ccc(CCl)cc2)c2ccccn2)CC1 |
| 25 nM | COc1ccccc1N1CCN(CCN(C(=O)c2ccc(N=[N+]=[N-])c(I)c2)c2ccccn2)CC1 |
| 22 nM | COc1ccccc1N1CCN(CCN(C(=O)c2ccc(NC(=O)CCl)cc2)c2ccccn2)CC1 |
| 16.1 nM | COc1ccccc1N1CCN(CCN(C(=O)c2cccc(C)c2)c2ccccn2)CC1 |
| 75 nM | CCCCCc1ccc(C(=O)N(CCN2CCN(c3ccccc3OC)CC2)c2ccccn2)cc1 |
| 17.7 nM | COc1ccccc1N1CCN(CCN(C(=O)c2ccc(N)c(I)c2)c2ccccn2)CC1 |
| 81.8 nM | CCCCCCCc1ccc(C(=O)N(CCN2CCN(c3ccccc3OC)CC2)c2ccccn2)cc1 |
| 10 nM | COc1ccccc1N1CCN(CCN(C(=O)c2ccc(N)cc2)c2ccccn2)CC1 |
| 2.2 nM | COc1ccccc1N1CCN(CCN(C(=O)c2ccc(C)cc2)c2ccccn2)CC1 |
| 57.9 nM | CCCCCCc1ccc(C(=O)N(CCN2CCN(c3ccccc3OC)CC2)c2ccccn2)cc1 |
| 10.3 nM | CCCc1ccc(C(=O)N(CCN2CCN(c3ccccc3OC)CC2)c2ccccn2)cc1 |
| 13.2 nM | CCCCc1ccc(C(=O)N(CCN2CCN(c3ccccc3OC)CC2)c2ccccn2)cc1 |
| 3.2 nM | COc1ccccc1N1CCN(CCN(C(=O)c2ccc(F)cc2)c2ccccn2)CC1 |
| 9.3 nM | CCc1ccc(C(=O)N(CCN2CCN(c3ccccc3OC)CC2)c2ccccn2)cc1 |
| 27 nM | COc1ccccc1N1CCN(CCN(C(=O)c2ccc(C(C)(C)C)cc2)c2ccccn2)CC1 |
